The numbers were not newly measured in patent publication US11229703B2, “Radiotherapy improvements” (NOXOPHARM LIMITED, priority 2016, dated 2022), which cites them from elsewhere.

Structures are written as SMILES.

For data set [1], the system named is cancer, especially metastatic disease involving solid tumours. The following applies: compound alone, various clinical trials.
For data set [2], the system named is hormone refractory prostate cancer. The following applies: males with hormone refractory prostate cancer given idronoxil ranging from 20 to 400 mg; 6 months from treatment.

Turning to `O=c1c(-c2ccc(O)cc2)coc2cc(O)cc(O)c12` [genestein, reference compound], the “complete or partial response to cancer” value in data set [1] is given as “unable to provide either a complete or partial response”. For the compound `Oc1ccc(C2=Cc3ccc(O)cc3OC2)cc1` [idronoxil, 2H-1-Benzopyran-7-0,1,3-(4-hydroxyphenyl)], the “complete or partial response to cancer” value in data set [1] is reported as “unable to provide either a complete or partial response”. Also, the disease progression result in data set [2] was “disease had progressed in most individuals by 6 months”.
